The values below come from PubChem BioAssay (NCI).

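Protocol summary: plate cells (96-well), add compound at 5 concentrations, incubate 48 h, interpolate endpoints linearly. Here, GI50 denotes the concentration required for 50% inhibition of growth. Definition used: TGI = concentration required for complete inhibition of growth.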 Where only a bound is given, the exact number is not on record here.

Common to all, as to experiment: growth of human tumour cells (NCI), 48 h
Assay [1] has as its system HS 578T breast.
Assay [2] concerns SK-MEL-2 melanoma.
The subject of assay [3] is ACHN renal.
For assay [4], the system named is MCF7 breast.
Assay [5] concerns OVCAR-8 ovarian.
Assay [6] deals with SK-MEL-28 melanoma.
The subject of assay [7] is EKVX NSCLC.
Assay [8] deals with SF-268 CNS.
The test system of assay [9] is HCT-15 colon.
Assay [10] relates to SK-MEL-5 melanoma.

Consider `CCCCCC[C@H](C)NC(=O)c1ccc(Nc2nc3ccccc3c3occc23)cc1`, for which the GI50 is 4.68 µM in assay [1]; 2640 nM in assay [2]; 13700 nM in assay [3]; 5860 nM in [4]; 2920 nM in assay [5]; 5410 nM in assay [6]. Moreover, the GI50 is 2.2 µM in assay [7], 6390 nM in assay [8], 8.42 µM in [9] and 2240 nM in assay [10]. Moreover, the TGI in assay [1] was 67.6 µM; in [2], 6.83 µM; in assay [3], 40 µM; in assay [4], > 100 µM; in assay [5] it was 8 µM; in [6] it was > 100 µM. In addition, the TGI was 5.42 µM in [7], > 100 µM in [8], 33 µM in assay [9] and 5.24 µM in assay [10].
In the case of `COc1cccc(Nc2nccc(-c3cnn4ncccc34)n2)c1`, the GI50 in [1] is 0.0381 µM; in assay [2], 57.2 nM; in assay [3] it was 45.6 nM; in assay [4], 76 nM; in assay [5] it was 68.1 nM; in assay [6], 39.5 nM. The GI50 is 0.0709 µM in assay [7], 72.1 nM in [8], 0.0697 µM in assay [9] and 58.8 nM in assay [10]. Moreover, the TGI in assay [1] is 0.117 µM; in [2], 0.138 µM; in assay [3] it was > 25 µM; in assay [4], > 25 µM; in [5], > 25 µM; in assay [6], 0.14 µM. Moreover, the TGI in assay [8] was 1.42 µM; in assay [9] it was > 25 µM; in assay [10] it was 0.561 µM.
As to `C=CCc1c(O)c(C(=O)/C=C/c2ccccc2)c(OC)c2ccoc12`, the GI50 is 3.89 µM in assay [1]; 3040 nM in assay [2]; 3790 nM in assay [3]; 2730 nM in assay [4]; 3130 nM in assay [5]; 2490 nM in [6]. The GI50 was 6.13 µM in assay [7], 2800 nM in assay [8], 2.91 µM in [9] and 2660 nM in assay [10]. In addition, the TGI was 33.8 µM in assay [1]; 13.8 µM in assay [2]; 13.8 µM in [3]; 10.4 µM in [4]; 13.6 µM in assay [5]; 8.28 µM in assay [6]. Further, the TGI in [7] is 20.6 µM; in [8] it was 10.7 µM; in assay [9], 11.8 µM; in assay [10] it was 10.9 µM.
`Fc1ccc(Nc2nc3ccccc3c3occc23)cc1`: the GI50 was 14.3 µM in assay [1]; 11900 nM in [2]; 1400 nM in assay [3]; 3390 nM in assay [4]; 11200 nM in assay [5]; 2450 nM in [6]. Further, the GI50 was 15.2 µM in [7], 7540 nM in assay [8], 9.58 µM in [9] and 16500 nM in assay [10]. Further, the TGI stood at 33.1 µM in [1]; 27.6 µM in [2]; 15.8 µM in assay [3]; 18.5 µM in [4]; 31.5 µM in assay [5]; 16.6 µM in assay [6]. Moreover, the TGI came to 29.5 µM in [7], 24.1 µM in assay [8], 21.4 µM in assay [9] and 30.1 µM in assay [10].
Regarding `O=C1NC(c2cccc(OCc3ccccc3)c2)Nc2ccccc21` (centres undefined), the TGI was 9.83 µM in assay [1]; 30 µM in [2]; 28.7 µM in assay [3]; 15.2 µM in assay [4]; 27.5 µM in assay [5]; > 85.7 µM in assay [6]. Besides, the TGI was > 54 µM in assay [7], > 51 µM in assay [8], 0.702 µM in [9] and 1.87 µM in assay [10].
Regarding `Cc1cc(Cl)cc(Cc2cc(Cl)cc(C)c2O)c1O`, the GI50 is 2.55 µM in assay [1]; 2600 nM in [2]; 2260 nM in [3]; 2470 nM in assay [4]; 2100 nM in assay [5]; 3460 nM in assay [6]. Besides, the GI50 in [7] is 3.62 µM; in assay [8] it was 2900 nM; in assay [9], 3.06 µM; in assay [10] it was 1710 nM. For the same compound, the TGI was found to be 7.75 µM in assay [1]; 5.73 µM in assay [2]; 7.26 µM in assay [3]; 9.66 µM in assay [4]; 6.16 µM in assay [5]; 15.2 µM in assay [6]. The TGI in assay [7] came to 68.8 µM; in assay [8] it was 16.8 µM; in assay [9], 11.3 µM; in assay [10], 3.61 µM.
`CCC[CH2][Pb]([Cl])([CH2]CCC)[CH2]CCC`: the GI50 in [1] was 0.0317 µM; in [2] it was 22.9 nM; in [3], 22.1 nM; in [4], 16.1 nM; in assay [5] it was 20.6 nM; in assay [6], 27.6 nM. The GI50 was 0.066 µM in assay [7], 19.2 nM in assay [8], 0.0195 µM in assay [9] and 53.4 nM in assay [10]. Also, the TGI was 0.0913 µM in [1]; 0.0724 µM in assay [2]; 0.0558 µM in assay [3]; 0.0361 µM in assay [4]; 0.0464 µM in [5]; 0.0792 µM in assay [6]. The TGI is 0.218 µM in [7], 0.0677 µM in assay [8], 0.0487 µM in assay [9] and 0.128 µM in [10].
Regarding `Nc1ncnc2c1ccn2[C@@H]1O[C@H]([C@H](O)c2ccc(Cl)c(F)c2)[C@@H](O)[C@H]1O`, the GI50 is > 100 µM in assay [1]; > 100000 nM in assay [2]; > 100000 nM in [3]; 50200 nM in assay [4]; > 100000 nM in assay [5]; > 100000 nM in assay [6]. For the same compound, the GI50 in [7] is > 100 µM; in assay [8] it was > 100000 nM; in [9], > 100 µM; in [10], 92600 nM. Moreover, the TGI in assay [1], in assay [2], in [3], in [4], in assay [5] and in assay [6] was > 100 µM throughout. Moreover, the TGI in [7], in assay [8], in [9] and in [10] was > 100 µM in each case.
